{"source": "patent US20060074057A1", "about": "“Use of chenodeoxycholic acid for reducing adipose tissue” (priority 2004, published 2006)", "origin": "cited, not measured here", "target": "11-beta-hydroxysteroid dehydrogenase type 1 (11BHSD1) (Homo sapiens, UniProt P28845)", "sequence (P28845 whole entry)": "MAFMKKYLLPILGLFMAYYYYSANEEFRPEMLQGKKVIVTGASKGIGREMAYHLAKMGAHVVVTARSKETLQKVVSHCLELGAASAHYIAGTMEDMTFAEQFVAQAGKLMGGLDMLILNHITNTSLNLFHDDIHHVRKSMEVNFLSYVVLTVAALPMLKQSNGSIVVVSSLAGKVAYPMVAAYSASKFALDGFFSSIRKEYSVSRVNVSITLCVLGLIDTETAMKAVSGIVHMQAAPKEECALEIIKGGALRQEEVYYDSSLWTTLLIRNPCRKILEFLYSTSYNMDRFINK", "settings": "\"has been shown\"; no data or method given", "data": [{"compound": "CC(CCC(=O)O)C1CCC2C3C(CC[C@]12C)[C@@]1(C)CC[C@@H](O)C[C@H]1C[C@H]3O", "note": "(stereo partly drawn) [Chenodeoxycholic acid, 3-alpha,7-alpha-dihydroxy-5-beta-cholanic acid]", "values": [{"measurement": "inhibition of 11BHSD1 (result in words)", "result": "selective inhibitor"}]}]}
